# Reference: patent US8314079B2, “Hyaluronic acid oligosaccharide fractions and drugs containing the same” (Seikagaku Corporation, priority 2000, dated 2012)
# How the values were obtained:
# HSF1 = experiment: Phosphorylation (activation) of HSF1 in heat-shocked K562 cells, band shift 66 kDa to 81 kDa by SDS-PAGE/Western blotting; assay type: cell-based, human
# From the text: It is known that HSF1 (heat shock factor 1) protein is a transcription factor of Hsp70 (J. Biol. Chem., 271, pp. 3355-3358, 1996). Moreover, the HSF1 protein can be activated by phosphorylation, and this phosphorylation can be detected based on band shift in SDS-polyacrylamide gel electrophoresis (SDS-PAGE) (apparent molecular weight shifts from about 66 kDa to about 81 kDa). By utilizing this fact, the HA oligosaccharides of various sizes were allowed to act on the K562 cells given with stress, and the aforementioned band shift was detected to investigate the degree of the phosphorylation (activation) of HSF1.
# HA4, ΔHA4, HA6, HA8, HA2-18 and HA 8-14 were each added to a medium containing the aforementioned cells at a concentration of 1, 10 or 100 ng/mL. Then, the cells were immediately transferred into an environment at 42° C. to be given with heat shock and incubated for 20 minutes. After the incubation, the cells were collected by centrifugation, and SDS-PAGE (gel concentration: 10%) was performed. Thereafter, Western blotting was performed by using anti-HSF1 monoclonal antibodies (produced by Stressgene) as primary antibodies and goat anti-mouse IgG monoclonal antibodies (produced by Jackson Lab) as secondary antibodies to detect the shift of a band of 66 kDa (HSF1 not phosphorylated) to a band of 81 kDa (phosphorylated HSF1).
# In order to confirm the reproducibility of Experiment 1, the band shift was detected in the same manner as in Experiment 1 by using HA4, ΔHA4, HA8 and HA84 except that HA was added in a single kind of amount of 100 ng/mL, and the heat shock was given at 43° C. In FIG. 41, the first lane from the left indicates the result obtained with an extract of cells incubated at 37° C. (no addition of HA oligosaccharide), the second lane indicates the result obtained with an extract of cells subjected to 43° C. (no addition of HA oligosaccharide), and the first lane from the right indicates the result of detection of HSF1 (derived from bacteria) as a standard.
# In order to investigate whether the action observed in Experiment 2 was specific to the saccharide chain basic structure of HA oligosaccharides, the following comparative experiment was performed by using chondroitin oligosaccharides. […] Therefore, it can be said that Ch is a substance extremely structurally analogous to HA, and the same shall also apply to the oligosaccharides thereof. • Saturated Ch tetrasaccharide (Ch4) • GlcAβ1-3GalNAcβ1-4GlcAβ1-3GalNAc • Saturated Ch hexasaccharide (Ch6) • GlcAβ1-3GalNAcβ1-4GlcAβ1-3GalNAcβ1-4GlcAβ1-3GalNAc • Saturated Ch octasaccharide (Ch8) • GlcAβ1-3GalNAcβ1-4GlcAβ1-3GalNAcβ1-4GlcAβ1-3GalNAcβ1-4GlcAβ1-3GalNAc
# The same experiment as Experiment 2 was performed by using these oligosaccharides.
# PC-12 cells = experiment: Cell death (apoptosis) of PC-12 cells in culture broth without blood serum, trypan blue staining; assay type: cell-based; conditions: 100 ng/mL, no blood serum, 24 hours
# Description: Therefore, each of ΔHA2, HA4, ΔHA4, HA6, ΔHA6, HA8, HA10, HA12, HA84, L4 and L4L4 was added to a culture broth containing PC-12 cells at a concentration of 100 ng/mL (containing no blood serum), 24 hours after, the cells were stained with trypan blue, and a ratio of the number of viable cells (cells not stained with trypan blue) to the total cell number was calculated.
# Balb/c mice = experiment: Concanavalin A hepatopathy model; assay type: in vivo, mouse; conditions: for average of GPT / average of GOT: 24 hours after ConA 15 mg/kg; for average of GPT: negative control about 5600; for average of GOT: negative control about 6000; for visual inspection of the livers (degree of hepatopathy): compared with negative and positive control solution groups
# Description: The preparation, concentration, dose, volume to be administered etc. of the test solution are the same as those used in Experiment 1.
# As a positive control solution, Stronger Neo-Minophagen C (Minophagen Pharmaceutical) was used at a dose of 5 mg/kg. This dose is the maximum clinical dose of the drug. Moreover, physiological saline was used as a negative control solution.
# Balb/c mice of 8-week old were divided into a “negative control solution” administered group (n=12), “HA4 2 mg/kg” administered group (n=12), “HA4 10 mg/kg” administered group (n=12), “HA4 50 mg/kg” administered group (n=12), “positive control solution” administered group (n=12) and “normal” group (n=8).
# Concanavalin A (ConA, Sigma) was injected via the caudal vein at a dose of 15 mg/kg. Then, each of the aforementioned solutions was administered via the caudal vein. Thereafter, the mice were bred for 24 hours.
# The whole blood was collected from the abdominal aorta, and the GPT activity and GOT activity were measured by a clinical chemistry autoanalyzer (COBAS MIRA S, Nippon Roche). Further, the liver was extracted, and appearance of the liver was evaluated by visual inspection.
# SD male rats = experiment: Gastric ulcer caused by arrest by water immersion in rats; assay type: in vivo, rat
# Description: A test substance was dissolved in carboxymethylcellulose (CMC) to obtain a test solution for administration. The concentration was determined depending on the dose mentioned below so that the volume of the solution to be administered should become 10 mL/kg.
# Moreover, as a positive control solution, a conventional agent for treating gastritis and gastric ulcer (teprenone, geranylgeranylacetone, trade name: Selbex, Eisai) dissolved in CMC was used. The concentration was determined so that the dose and the volume of the solution to be administered should become 1 mg/kg (clinical dose) and 10 mL/kg, respectively. As a negative control solution, 0.5% CMC was used.
# SD male rats of 5-week old were divided into a “negative control solution” administered group (n=8), “HA4 4 mg/kg” administered group (n=8), “HA4 20 mg/kg” administered group (n=8), “HA4 100 mg/kg” administered group (n=8) and “positive control solution” administered group (n=8).
# The rats of the groups were starved from 16:00 of the day before the first administration day, orally administered with each of the aforementioned solutions at 8:00 of the next day and arrested by water immersion. The arrest by water immersion was continued until 8:00 of the next day (24 hours). In the course of the arrest, each solution was administered in the same manner as the first administration at 16:00 and 24:00.
# Then, the rats were dissected, and the stomachs were extracted. The extracted stomachs were expanded by injection of 10% buffered formalin to smoothen the holds and fixed. Then, the blood adhering to walls of stomachs was removed by washing with water.
# The area ratio of ulcerous portion degenerated in a dark brown color (ulcer area/glandular stomach area) was measured by using an image analysis apparatus (Image-Pro PLUS™ Version 3.0.1, produced by Media Cybernetics). The symbols * and ** in FIG. 48 indicate significant differences with p<0.05 and p<0.01, respectively (Williams multiple range test).
# [1] = Experiment 2 (and comparative Experiment 3), 100 ng/mL, heat shock 43° C.
smiles,measurement,setting,value
"CC(=O)N[C@H]1[C@H](O[C@H]2[C@H](O)[C@@H](O)[C@H](O[C@H]3[C@H](O)[C@@H](CO)OC(O)[C@@H]3NC(C)=O)O[C@@H]2C(=O)O)O[C@H](CO)[C@@H](O)[C@@H]1O[C@@H]1O[C@H](C(=O)O)[C@@H](O)[C@H](O)[C@H]1O.[Na].[Na] (stereo partly drawn) [HA4, sodium β-D-glucopyranosyluronate-(1→3)-2-acetamido-2-deoxy-β-D-glucopyranosyl-(1→4)-(sodium β-D-glucopyranosyluronate)-(1→3)-2-acetamido-2-deoxy-D-glucopyranose]",shift of a band of 66 kDa (HSF1 not phosphorylated) to a band of 81 kDa (phosphorylated HSF1),"HSF1; Experiment 1, 1, 10 or 100 ng/mL, heat shock 42° C., 20 minutes",shift to the 81 kDa band was observed depending on the amount of the added HA oligosaccharide
same,amount of HSF1 per se,HSF1; [1],amounts of both HSF1 of 66 kDa and 81 kDa per se were also increased
same,band shift of HSF1 (66 kDa to 81 kDa),HSF1; [1],band shift was observed
same,suppression of cell death (ratio of the number of viable cells to the total cell number),PC-12 cells,more notably suppressed the cell death
same,average of GPT,Balb/c mice; 10 mg/kg via the caudal vein,about 2200 I.U./L
same,average of GOT,Balb/c mice; 10 mg/kg via the caudal vein,about 2000 I.U./L
same,visual inspection of the livers (degree of hepatopathy),Balb/c mice; 10 mg/kg,lower degree of hepathopathy
same,average of GPT,Balb/c mice; 50 mg/kg via the caudal vein,about 1200 I.U./L
same,average of GOT,Balb/c mice; 50 mg/kg via the caudal vein,about 1000 I.U./L
same,visual inspection of the livers (degree of hepatopathy),Balb/c mice; 50 mg/kg,lower degree of hepathopathy
same,area ratio of ulcerous portion (ulcer area/glandular stomach area),"SD male rats; 20 mg/kg oral, compared with positive control solution (teprenone 1 mg/kg)",lower than that observed for the positive control solution group
same,area ratio of ulcerous portion (ulcer area/glandular stomach area),"SD male rats; 100 mg/kg oral, compared with positive control solution (teprenone 1 mg/kg)",lower than that observed for the positive control solution group
same,area ratio of ulcerous portion (ulcer area/glandular stomach area),"SD male rats; all HA4 groups (4, 20, 100 mg/kg, oral, three administrations), compared with negative control solution group",significantly reduced
